A short description of this experiment: example reaction demonstrating the sequestration reaction (strained alkyne with azide, in vitro, followed by NMR). As to conditions: allowed to react with azide-fluor 488 (representing a capture substrate), NMR tube.

Take `OC[C@H]1[C@H]2CCC#CCC[C@@H]12` [(1R,8S,9s)-Bicyclonon-4-yn-9-ylmethanol]: the “course of the sequestration (click) reaction” value is recorded as “complete before a nuclear magnetic resonance (NMR) tube containing the reaction constituents could be inserted into the probe”.

The values are drawn from patent US11224666B2, “Gadolinium contrast agents, scavenging methods, and scavenging system” (Boston Scientific Scimed, Inc., priority 2018, dated 2022).
